{
  "source": "patent US20230233483A1",
  "about": "“COMPOUND AND METHOD FOR THE TREATMENT OF CORONAVIRUSES” (Apteeus, priority 2020, published 2023)",
  "key": {"hSARS-CoV2 [1]": {"system": "hSARS-CoV2", "assay": "Viral genomic replication (RT-qPCR) in Vero81 and TMPRSS2-transduced Vero81 cells", "type": "cell-based, SARS-CoV-2", "description": "Cell culture: Vero81 cells and Vero-81 cells transduced with TMPRSS2 were cultured in Dulbecco’s modified Eagle medium (DMEM) supplemented with 10% fetal bovine serum (FBS) and GlutaMAX™ in a humidified atmosphere of 5% CO2 at 37° C.\nTested compound: solutions of clofoctol were prepared in DMSO at concentrations required to achieve the desired concentrations in the experiment. Solutions were dispensed onto the living cells. The maximum concentration of DMSO was 0.15%.\nCell infection: cells were infected after addition of clofoctol at various concentrations or control solvents. The multiple of infection was 0.25. […]\nRNA dosing: after 6 hours of incubation, total cellular RNA was extracted by using the Nucleospin RNA kit (Macherey-Nagel) as recommended by the manufacturer and SARS-CoV-2 genome were measured by quantitative RT-PCR. […] Primers and probe (WHO protocol) targeting the open reading frame for the E gene were used. […]\nThe effect of clofoctol on Vero81 and TMPRSS2-transduced Vero81 cells infected with hSARS-CoV2 was assessed by adding a range of concentrations of clofoctol, following 1:2,5 dilutions, prior to infection with hSARS-CoV2 at MOI 0.25 for 6 hours. […]\nResults were obtained by dosing viral RNA and the viral load was expressed as the ratio of the viral RNA on the total RNA (RNAt) of the sample. […]"}, "[2]": {"assay": "Pharmacokinetics in C57BL/6J mice, plasma and lung concentration", "type": "in vivo", "conditions": "i.p. 62.5 mg/kg single dose or twice daily for two days", "description": "Clofoctol diluted in 1.75% final Kolliphor® RH40 (07076, Sigma) and 1.4% final ethanol in a sodium chloride solution was used for intraperitoneal injection. Female 8-10 week-old C57BL/6J mice were treated i.p. with a single dose of clofoctol (62.5 mg/kg) and were sacrificed at different time points thereafter (FIG. 9, left panel). In a separate experiment, the mice were treated i.p. twice daily with a dose of clofoctol (62.5 mg/kg) for two days, and the mice were sacrificed 1 h after the last injection (FIG. 9, right panel). The concentration of clofoctol in the plasma and lung of treated mice was measured as follows: plasma samples and lung tissues were collected and treated with absolute ethanol, in a ratio of 1 to 10 and 1 to 50, respectively. Lung tissues were homogenized with a mechanical lysis system (Tissue Lyzer II). Supernatants were obtained by centrifugation before injection in LC-MS/MS. Samples were analysed using UPLC system Acquity I Class (Waters), combined with a triple quadrupole mass spectrometer Xevo TQD (Waters). The column, placed at 40° C., was an Acquity BEH C8 50*2.1 mm, 1.7 µm column (Waters) and the following mobile phases were used: 5 mM ammonium formate pH 3.75 in water, as solvent (A) and 5 mM ammonium formate pH 3.75 in acetonitrile as solvent (B). […]"}, "hSARS-CoV-2": {"system": "hSARS-CoV-2", "assay": "Infected human bronchial epithelia (MucilAir), secreted virus and viral RNA", "type": "cell-based, SARS-CoV-2", "conditions": "apical administration, MOI 0.2, 72 hours", "description": "Human bronchial epithelia (MucilAir™, available from the company Epithelix) were treated through apical administration of clofoctol. The epithelia were first washed with Mucilair® culture medium containing different concentrations of clofoctol prior to infection by hSARS-CoV-2 at MOI 0.2 for 1 hour, still in the presence of clofoctol. Then, the inoculum was removed and epithelia were washed with PBS before addition at the apical pole of 25 µl of Mucilair® culture medium containing different concentrations of clofoctol. After 72 hours of incubation at 37° C., 200 µl of MucilAir™ culture medium was added at the apical pole of the epithelia and harvested, after incubating for 5 minutes. These supernatants were used to quantify the amount of secreted virus as assessed by TCID50. The results are shown in FIG. 15 in which the dotted line represents the limit of detection […]. In addition, total RNAs were extracted by using the Nucleospin RNA kit (Macherey-Nagel) prior to genome quantification by RT-qPCR. The data in both FIGS. 15 and 16 represent the average and standard-deviation of technical triplicates (n=3)."}, "SARS-CoV-2 [3]": {"system": "SARS-CoV-2", "type": "cell-based", "conditions": "Vero-81 and Vero-81-TMPRSS2 cells, MOI 0.25, treatment after 1 h infection, 16 h"}, "hSARS-CoV2 [4]": {"system": "hSARS-CoV2", "assay": "Cytopathic effect and cell growth in TMPRSS2-transduced Vero81 cells infected with hSARS-CoV2", "type": "cell-based, SARS-CoV-2", "conditions": "MOI 0.01, 72 hours", "description": "Vero-81 cells were transduced with a lentivirus expressing TMPRSS2. TMPRSS2 was cloned into pTRIP vector, lentivectors were produced by transfection of HEK293T cells with pTRIP-TMPRSS2, phCMV-VSVG and HIV gag-pol with Turbofect™ (ThermoFischer) according to the manufacturer’s instruction. Supernatants containing lentiviral vectors were used to transduce cells. Then cells were used in experiments 72 h after the transduction.\nTested compound: solutions of the clofoctol were prepared in DMSO at concentrations required to achieve the desired concentrations in the experiment. Solutions were dispensed onto the living cells. The maximum concentration of DMSO was 0.15%. […]\n(§1) The effect of clofoctol on TMPRSS2-transduced Vero81 cells infected with hSARS-CoV2 was assessed by adding a range of concentrations of clofoctol, following 1:3 dilutions, prior to infection with hSARS-CoV2 at MOI 0.01 for 72 hours. […]\n(§2) The results were obtained by analyzing the percentage of PI-positive nuclei expressed as the percentage of CPE relative to a scale defined by positive (0% infected cells) and negative (100% infected cells) controls. […]\nThe results were obtained by analyzing the number of living cells expressed as the percentage of cell growth improvement relative to a scale defined by normal cell growth (not infected controls) and no cell growth (infected controls). […]"}, "HCoV-229E-Rluc": {"system": "HCoV-229E-Rluc", "type": "cell-based", "conditions": "Huh-7 cells, 7h post-infection"}, "hSARS-CoV2 [5]": {"system": "hSARS-CoV2", "assay": "Cytopathic effect and cell growth in Vero81 cells infected with hSARS-CoV2", "type": "cell-based, SARS-CoV-2", "conditions": "MOI 0.01, 72 hours", "description": "Vero cells [ATCC® CCL-81™, ECACC, Sigma-Aldrich, France, hereafter “Vero81” cells] were cultured in Dulbecco’s modified Eagle medium (DMEM) supplemented with 10% fetal bovine serum (FBS) and GlutaMAX™ in a humidified atmosphere of 5% CO2 at 37° C.\nTested compound: solutions of the clofoctol were prepared in DMSO at concentrations required to achieve the desired concentrations in the experiment. Solutions were dispensed onto the living cells. The maximum concentration of DMSO was 0.15%.\nCell infection: cells were infected after addition of clofoctol at various concentrations or control solvents. The multiple of infection was 0.01. […]\nas §1, with “on” for “on TMPRSS2-transduced”, “0.01 (Multiple Of Infection (MOI) 0.01 means that the amount of virus used is 0.01 per 1 cell)” for “0.01”\nas §2\nThe effect of clofoctol on Vero81 cells infected with hSARS-CoV2 was assessed by adding a range of concentrations of clofoctol, following 1:3 dilutions, prior to infection with hSARS-CoV2 at MOI 0.01 for 72 hours. […]"}, "[6]": {"conditions": "read-out: Cmax in human lung tissue; patients undergoing pulmonary resection or pneumonectomy, clofoctol administered before or during surgery; cited from earlier work"}, "SARS-CoV-2 [7]": {"system": "SARS-CoV-2", "type": "in vivo, K18-human ACE2 expressing C57BL/6 mice", "conditions": "i.p. 62.5 mg/kg 1 h and 8 h after inoculation and twice daily at day 1; day 2 post-infection"}, "SARS-CoV-2 [8]": {"system": "SARS-CoV-2", "type": "cell-based", "conditions": "Calu-3 cells, MOI 0.25, 24 h"}},
  "note": "Entries after “also recorded” stand apart in the source; their conditions may differ.",
  "data": [
    {"smiles": "CC(C)(C)CC(C)(C)c1ccc(O)c(Cc2ccc(Cl)cc2Cl)c1", "note": "[clofoctol, 2-(2,4-Dichlorobenzyl)-4-(1,1,3,3-tetramethylbutyl)phenol]", "values": [
      {"measurement": "IC95 of viral load (ratio of viral RNA on total RNA)", "setting": "hSARS-CoV2 [1]; Vero81 and TMPRSS2-transduced Vero81 cells, MOI 0.25, 6 hours", "result": 11, "unit": "µM"},
      {"measurement": "Genomic replication of SARS-CoV-2 (viral RNA by RT-qPCR, normalized to total RNA)", "setting": "hSARS-CoV2 [1]; Vero-81 and Vero-81-TMPRSS2 cells, MOI 0.25, 6 h, increasing concentrations", "result": "inhibits the replication of hSARS-CoV2 in infected cells; also recorded: inhibits the genomic replication of SARS-CoV-2"},
      {"measurement": "Distribution in lungs (concentration in plasma and lung)", "setting": "[2]", "result": "distributed in lungs at very significant levels"},
      {"measurement": "Factor of reduction of virus titer in the mucus of human bronchial epithelium (TCID50)", "setting": "hSARS-CoV-2; 30 µM", "result": "more than 100"},
      {"measurement": "Viral RNA quantitation (RT-qPCR) in human bronchial epithelia", "setting": "hSARS-CoV-2; not normalized", "result": "decrease of viral RNA quantitation"},
      {"measurement": "Secreted infectious virus (TCID50) in supernatants", "setting": "SARS-CoV-2 [3]", "result": "inhibits the secretion of hSARS-CoV-2 by infected cells; also recorded: SARS-CoV-2 load decreases as the concentration of clofoctol increases"},
      {"measurement": "IC95 of the CPE (percentage of PI-positive nuclei)", "setting": "hSARS-CoV2 [4]", "result": 8.7, "unit": "µM"},
      {"measurement": "EC95 (cell growth improvement)", "setting": "hSARS-CoV2 [4]; estimated", "result": "~25", "unit": "µM"},
      {"measurement": "Activity against HCoV-229E (luciferase activity, percentage of control)", "setting": "HCoV-229E-Rluc", "result": "active against HCoV-229E"},
      {"measurement": "IC95, concentration reducing 95% of the CPE (percentage of PI-positive nuclei)", "setting": "hSARS-CoV2 [5]", "result": 9.2, "unit": "µM"},
      {"measurement": "EC95, concentration at which 95% of maximum response is observed (cell growth improvement)", "setting": "hSARS-CoV2 [5]; estimated", "result": "~21", "unit": "µM"},
      {"measurement": "Cmax", "setting": "[6]", "result": "~250", "unit": "µM"},
      {"measurement": "SARS-CoV-2 infection in mice (lung viral load by titration and RT-qPCR)", "setting": "SARS-CoV-2 [7]", "result": "significantly reduces SARS-CoV-2 infection in mice"},
      {"measurement": "SARS-CoV-2 replication (viral RNA by RT-qPCR)", "setting": "SARS-CoV-2 [8]", "result": "inhibits SARS-CoV-2 replication in Calu-3 cells"}
    ]}
  ]
}
